Assay results as given in publication PMC9258321, “Structure-guided design of CPPC-paired disulfide-rich peptide libraries for ligand and drug discovery” (Chemical Science, 2022).
Bridge positions count the residues as written; N and C are the ends. Square brackets hold non-standard residues; d marks the D form. Peptide text beside a SMILES is read from it. * marks the point of attachment. FITC = O=C1OC2(c3ccc(O)cc3Oc3cc(O)ccc32)c2ccc(NC(=S)*)cc21; βAla = NCCC(=O)O

How the values were obtained:
Keap1 = biological target: T1, Keap1 (Homo sapiens, UniProt Q14145); assay: Surface plasmon resonance (SPR) assay, affinity of peptides to Keap1; format: binding; details: Biacore T200, 25 °C, biotinylated Keap1 on CAP chip, peptide 25-1600 nM, flow 30 μL/min, multi-cycle affinity method, oxidized, HPLC-purified peptide, read-out: equilibrium dissociation constant (KD) toward Keap1
T1 construct: another target (the Kelch domain of Keap1)
T1 sequence (Q14145 321-609 limits assumed, species assumed): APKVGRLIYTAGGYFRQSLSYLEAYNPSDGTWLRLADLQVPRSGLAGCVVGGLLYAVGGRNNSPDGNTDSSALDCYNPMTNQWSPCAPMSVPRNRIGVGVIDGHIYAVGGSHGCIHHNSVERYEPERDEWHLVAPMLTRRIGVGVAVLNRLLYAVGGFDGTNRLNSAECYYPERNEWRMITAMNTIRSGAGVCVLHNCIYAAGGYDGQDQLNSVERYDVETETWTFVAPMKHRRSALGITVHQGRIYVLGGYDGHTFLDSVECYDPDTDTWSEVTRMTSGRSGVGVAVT
Method: Surface plasmon resonance (SPR) assay
The affinity of peptides to Keap1 was measured using Biacore T200 (GE healthcare) at 25℃. At first, Keap1 was linked to a Biacore CAP chip via the interaction of biotin and avidin (Biotinylation of Keap1 occurs through the preceding reaction, Biacore CAP chip was performed through a Biotin CAPture Kit (GE healthcare)). Then, different concentrations of peptides were used in experiment (25, 50, 100, 200, 400, 800, 1600 nM) at a flow rate of 30 μL/min. The binding affinity and kinetics constants were quanti-fied by a multi-cycle affinity method.
NMR samples were dissolved in 80% perdeuterated acetonitrile and 20% H2O for drp1, 75% perdeu-terated acetonitrile and […] for drp2-a, 60% perdeuterated acetonitrile and 40% H2O for drp8, 50% perdeuterated acetonitrile and 50% H2O for drp3 and drp6, 40% perdeuterated acetonitrile and 60% H2O for drp2-b and drp4 (The solution conditions depend on the dispersion of cross -peaks). All of NMR samples were prepared in a final concentration of about 1 mM. […] Two dimensional (2D) 1H, 15N/13C HSQC spectra were recorded to obtain chemical shifts of heavy atoms in backbone and side-chains. […]
The backbone dihedral angle restraints were obtained using programs TALOS -N based on chemical shifts of backbone resonances6. […] The structures were visualized in PyMol, and the quality of structures was analyzed using PROCHECK 9. […]

MDM2 = assay: Fluorescence polarization (FP) competition assay, binding to MDM2; details: FP competition assay described previously (ref 32 method); oxidized products; Fig. S3
Source text: The most abundantly enriched sequences from both selections were then synthesized, and their oxidative folding in redox buffers were examined using HPLC. Oxidation of the MDM2-binding peptide (drp2) yields two products (drp2-a and drp2-b) in a ratio of ∼1 : 3 (Fig. 2c). […] The structures of the two products were then characterized using NMR (Fig. 2c; PDB 7W8O and 7W8R). Both products can maintain a stable, but different 3D structure with a conserved α-helix responsible for target recognition, corresponding to the parallel and antiparallel dimeric pairing of the two CPPC motifs in the peptide (drp2-a and drp2-b, respectively). […]
min incubation at room temperature, the fluorescence anisotropies were measured using a plate reader (Eex= 485 nm, Eem=535 nm). All of the measurements were recorded in triplicate. In the fluorescence polarization assay s measuring the binding of reduced FITC-drp8 to CD28 and the binding of oxidized FITC-drp8 to CTLA-4, the fluorescence anisotrop ies were recorded in the same way as described above.
Dissociation constants ( KD) were determined by nonlinear regression analysis of anisotrop ies versus the concentrations of the protein using the following equation: […]
(b) Competition fluorescence polarization assay. The binding of drp8 to CD28 was measured by adding dilutions of drp8 to premixed oxidized FITC-drp8 and CD28 in PBS (pH 7.4). […]

[1] = Circular dichroism (CD) thermal denaturation; format: physicochemical; details: CD 190-260 nm, 61 μM in pure water, scans at 25, 45, 75 and 95 °C; only a small decline of CD signals up to 95 °C; Fig. S7
Source text: (§1) from 2% agarose gel (containing 0.005% v/v of 4S Red Plus Nucleic Acid Stain) used a commercial agarose gel purification kit (E.Z.N.A® Gel Extraction Kit, OMEGA BIO-TEK, USA). Then, Novogene Co., Ltd. was commissioned for sequence identification. The data were processed and analyzed using […]
(§2) All peptides were synthesized on a CEM Liberty Blue automated microwave peptide synthesizer by standard Fmoc solid-phase chemistry on a Rink Amide MBHA resin (0.025 mmol scale). Coupling reac-tions were performed with a Fmoc-AA-OH (5 eq., 0.2 M solution in DMF), DIC (5 eq., 0.25 M solution in DMF) and Oxyma Pure (5 eq., 1.0 M solution in DMF). Fmoc groups were removed using a 20% (v/v) solution of piperidine in DMF. […]
(§3) In a typical experiment, reduced peptide (50 μM) was dissolved in 100 mM phosphate buffer (500 μL, pH 7.4) containing 6 M Gu·HCl, 0.5 mM GSSG and 10% DMSO (v/v). […] After analyzed by MALDI-TOF MS, the oxidized peptide was purified and lyophilized to yield […]
(§4) Circular dichroism (CD) wavelength and temperature scans were recorded for thermal denaturation experiments. […] Wavelength scans from 190 nm to 260 nm were recorded at 25℃, 45℃, 75℃ and 95℃, and temperature were carried out at a heating rate of 5℃/min in 1 mm path length cuvettes.
(§5) Fluorescence polarization (FP) assay
(§6) (a) Fluorescence polarization binding assay. […]

CD28 = biological target: T2, CD28 (Homo sapiens, UniProt P10747); assay: Fluorescence polarization binding assay (saturation binding of FITC-drp8 to CD28); details: FP assay, same way as for oxidized FITC-drp8
T2 construct: purchased Sino Biological 11524-HCCH
T2 sequence (P10747 19-220): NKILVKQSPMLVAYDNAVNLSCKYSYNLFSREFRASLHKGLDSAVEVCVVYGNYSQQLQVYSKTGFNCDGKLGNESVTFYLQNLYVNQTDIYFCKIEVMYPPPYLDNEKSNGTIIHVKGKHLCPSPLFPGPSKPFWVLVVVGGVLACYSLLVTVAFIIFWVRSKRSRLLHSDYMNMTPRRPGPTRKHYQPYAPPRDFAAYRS
Source text: as §1
as §2, with “DMF).” for “DMF). Fmoc groups were removed using a 20% (v/v) solution of piperidine in DMF.”
as §3, §4, §5, §6
min incubation at room temperature, the fluorescence anisotropies were measured using a plate reader (Eex= 485 nm, Eem=535 nm). […]

## CC[C@H](C)[C@@H]1NC(=O)[C@H](CCC(=O)O)NC(=O)[C@@H]2CSSC[C@H](NC(=O)[C@H](CO)NC(=O)[C@H](CO)NC(=O)[C@H](C(C)C)NC(=O)[C@H](CCC(=O)O)NC(=O)[C@H](CCSC)NC(=O)[C@@H]3CSSC[C@H](NC(=O)[C@H](CCCNC(=N)N)NC(=O)[C@H](CO)NC(=O)CNC1=O)C(=O)N1CCC[C@H]1C(=O)N1CCC[C@H]1C(=O)N[C@H](C(N)=O)CSSC[C@H](NC(=O)[C@@H](N)Cc1c[nH]c4ccccc14)C(=O)N1CCC[C@H]1C(=O)N1CCC[C@H]1C(=O)N3)C(=O)N[C@@H](CC(=O)O)C(=O)N[C@@H](CCC(=O)O)C(=O)N[C@@H](CCC(=O)O)C(=O)N[C@@H]([C@@H](C)O)C(=O)NCC(=O)N[C@@H](CCC(=O)O)C(=O)N2 [drp6] (H-WCPPCMEVSSCDEETGECEIGSRCPPC-NH2; disulfide 2-27, 5-24, 11-18)
Keap1
  Kd: 47 nM

## H-GCPPCESCHSGESTFWCYWEALCPPC-NH2 (also: bicyclic or more (positions not given here)) [drp2-a, oxidized product of drp2]
MDM2
  affinity to MDM2 (in words): subnanomolar affinity

## H-SCPPCHGRPTCTKPGDNATPEKLAKYQACWELLTCPPC-OH (also: bicyclic or more (positions not given here)) [drp4, drp1 grafted with loop-α-helix fold of PPα-Tyr; recombinantly produced in E. coli as SUMO fusion]
[1]
  thermal stability of the 3D structure (CD signal): extremely stable to thermal treatment

## {FITC}-[βAla]GCPPCPREHELVAVPCEGLNNCWFVEACPPC-NH2 (cysteine pairing not given here) [reduced drp8, reduced form of fluorescein-labeled drp8]
CD28
  binding of reduced labeled peptide to CD28 (in words): negligible
